Measured values: patent US20260235624A1, “PEPTIDES AND THEIR LABELLED DERIVATIVES SUITABLE FOR USE IN THE DIAGNOSIS OF DIABETES OR ITS COMPLICATIONS” (Instytut Medycyny Doswiadczalnej i Klinicznej im. Miroslawa …, priority 2023, published 2026)

Assays:
ADAM10 = experiment: Hydrolysis of the ADAM10 substrate in urine samples, increase in fluorescence; type: biochemical, human; conditions: control urine samples Z1-Z10 (healthy subjects); 20 μL of 45 μM substrate, buffer pH 9.0, 37° C., 30 minutes, triplicate
Procedure: (§1) 20 μL of a 45 μM substrate solution of the peptide of the invention or its labelled derivative were mixed with 100 μL of the measurement buffer (25 mM Tris-Cl, 2.5 μM ZnCl2 and 0.005% Brij-35, pH 9.0) and 80 μL of test urine from a patient diagnosed with diabetes or a healthy person (control).
(§2) When fluorescently labelled derivatives were used, measurements were carried out in triplicate in a 96-well plate using a CLARIOStar plate reader (BMG Labtech, Ortenberg, Germany) at 37° C. for 30 minutes. After this time, the measurement was finished and the increase in fluorescence was determined. If a fluorescence increase of more than 0.0001 U/sec was obtained, the urine sample tested was considered to originate from a person with diabetes.

ADAM17 = experiment: Hydrolysis of the ADAM17 substrate in urine samples, increase in fluorescence; type: biochemical, human; conditions: control urine samples Z1-Z10 (healthy subjects); 20 μL of 45 μM substrate, buffer pH 9.0, 37° C., 30 minutes, triplicate
Procedure: as §1, §2

Substance: ABZ-Lys-Ile-Ile-Asn-Leu-Lys-Arg-Tyr(3-NO2)—NH2
- Increase in concentration of labelled degradation products in the urine sample, Mean (ADAM10): 0.000000

Substance: ABZ-Asn-Tyr-Met-Ala-Leu-Arg-Arg-Tyr(3-NO2)—NH2
- Increase in concentration of labelled degradation products in the urine sample, Mean (ADAM17): 0.000000
